Reference: patent EP2604600A1, “Isatin derivatives and their use in therapy” (priority 2011, dated 2013)
Values after ≈ are worked out from the molar mass of the structure shown. Read-outs that look alike come from different tables or passages of the source.

What was measured:
M. tuberculosis H37Rv [1] = experiment: Resazurin MIC assay, pan-sensitive strain; format: cell-based; details: Mycobacterium tuberculosis, 48 h
M. tuberculosis H37Rv [2] = experiment: MBC assay with H37Rv; format: cell-based; details: Mycobacterium tuberculosis, 504 h; performed with H37Rv; concentration that inhibits ≥ 99.9% of the initial bacterial inoculum; 3 weeks on 7H10 agar at 37°C
Description: The MBC assay with H37Rv was performed as an adjunct to the MIC assay and was used to determine the concentration of drug that is lethal to the target bacterium in vitro. A small aliquot (i.e., 10 µl) was removed from appropriate dilutions in the 96-well plate used to determine the MIC value with subsequent streaking on 7H10 agar plates. Five wells were selected, representing the well yielding the MIC value and 2 wells above and below the well that yielded the MIC value. After 3 weeks of incubation at 37°C, the agar plates were inspected for the presence or absence of growth. The MBC value is the concentration in µg/ml that inhibits ≥ 99.9% of the initial bacterial inoculum. Antimicrobials are usually regarded as bactericidal if the MBC is no more than four times the MIC. while the bacteriostatic agents have MIC values that are much lower than the MBC.

[3] = Precipitation noted during the MIC assay; format: physicochemical; details: observed in the MIC assay plates, 7H9 medium
Description: Stock solutions were prepared at 3.2 mg/ml which were then diluted as indicated below: 1. 20 µl of the 3.2 mg/ml stock of the test compound were added to a 96-well microtiter plate. 2. 2-fold dilutions were made by the addition of 20 µl of diluent.
3. Each dilution was further diluted 1:10 in sterile water (10 µl of dilution to 90 µl of sterile water). Note: The additional 10-fold dilution in water is required when DMSO is used as solvent to minimize toxicity to the bacteria. For uniformity in the assay procedure, this dilution step was used even if water or other solvents were used.
The following steps are followed in preparing the 96-wcll plates: • 1. 6.25 µl of each dilution were transferred to duplicate 96-well test plates. • 2. 93.75 µl of the cell suspension (∼ 10^4 bacteria) in 7H9 medium were added to the test plates. • 3. Positive, negative, sterility and resazurin controls were tested: • a. Positive controls include: appropriate antibiotics for each resistant strain and rifampicin and isoniazid for 113 7Rv • b. Negative controls include: • i. cell culture with solvent and water • i.i. cell culture only • c. Sterility controls include: • i. medium only • ii. medium with solvent and water • d. […] This control plate is needed to verify whether the compound reacts with resazurin that could possibly elicit fluorescence. • 4. […]

[4] = Table 3, standard test strain H37Rv, read-out: MIC Value (µg/ml) H37Rv*
[5] = H37RV, Table 2, Resazurin MIC assay, […], read-out: MIC H37Rv

With O=C1Nc2ccc(Cl)cc2C1=NNC(=O)c1ccncc1 [Compound 3a] the MIC (M. tuberculosis H37Rv [1]; [4]) was 1.25 µg/mL (≈ 4.16 µM), the MIC (M. tuberculosis H37Rv [1]; [5]) was 1.25 µg/mL (≈ 4.16 µM) and the MBC (M. tuberculosis H37Rv [2]) was 1.25 µg/mL (≈ 4.16 µM). The “Comments (precipitation)” value [3] was “Precipitation observed at 10 µg/ml”.

O=C1Nc2ccc(F)cc2C1=NNC(=O)c1ccncc1 [Compound 3b, reference compound] gave an MIC (M. tuberculosis H37Rv [1]; [5]) of 10 µg/mL (≈ 35.2 µM).

O=C1Nc2ccc([N+](=O)[O-])cc2C1=NNC(=O)c1ccncc1 [Compound 3c] showed an MIC (M. tuberculosis H37Rv [1]; [4]) of 0.156 µg/mL (≈ 0.501 µM), an MIC (M. tuberculosis H37Rv [1]; [5]) of 0.156 µg/mL (≈ 0.501 µM) and an MBC (M. tuberculosis H37Rv [2]) of 0.31 µg/mL (≈ 0.996 µM).

O=C1Nc2ccc(F)cc2C1=NNC(=O)c1ccc([N+](=O)[O-])o1 [Compound 3d] gave an MIC (M. tuberculosis H37Rv [1]; [5]) of 5 µg/mL (≈ 15.7 µM).

In the case of O=C1Nc2ccc(OC(F)(F)F)cc2C1=NNC(=O)c1ccc([N+](=O)[O-])o1 [Compound 3e], the MIC (M. tuberculosis H37Rv [1]; [4]) is reported as 2.5 µg/mL (≈ 6.51 µM), the MIC (M. tuberculosis H37Rv [1]; [5]) is reported as 2.5 µg/mL (≈ 6.51 µM) and the MBC (M. tuberculosis H37Rv [2]) is reported as 2.5 µg/mL (≈ 6.51 µM).

With O=C(NN=C1C(=O)N(c2ccccc2)c2ccccc21)c1ccc([N+](=O)[O-])o1 [Compound 3f] the MIC (M. tuberculosis H37Rv [1]; [5]) was 5 µg/mL (≈ 13.3 µM).

O=C(NN=C1C(=O)N(Cc2ccccc2)c2ccccc21)c1ccc([N+](=O)[O-])o1 [Compound 3g] showed an MIC (M. tuberculosis H37Rv [1]; [4]) of 0.156 µg/mL (≈ 0.4 µM), an MIC (M. tuberculosis H37Rv [1]; [5]) of 0.156 µg/mL (≈ 0.4 µM) and an MBC (M. tuberculosis H37Rv [2]) of 0.156 µg/mL (≈ 0.4 µM). The “Comments (precipitation)” value [3] was “Precipitation observed at 10 µg/ml”.

For O=C(NN=C1C(=O)N(Cc2ccccc2)c2ccc(Cl)cc21)c1ccc([N+](=O)[O-])o1 [Compound 3h], the MIC (M. tuberculosis H37Rv [1]; [5]) was 0.312 µg/mL (≈ 0.734 µM).

Work on O=C(NN=C1C(=O)N(Cc2ccccc2)c2ccc(F)cc21)c1ccc([N+](=O)[O-])o1 [Compound 3i] yielded an MIC (M. tuberculosis H37Rv [1]; [5]) of 0.156 µg/mL (≈ 0.382 µM).

For Cc1ccc2c(c1)C(=NNC(=O)c1ccc([N+](=O)[O-])o1)C(=O)N2Cc1ccccc1 [Compound 3j], the MIC (M. tuberculosis H37Rv [1]; [5]) was 1.25 µg/mL (≈ 3.09 µM).

With NNC(=O)c1ccncc1 [Isoniazid, reference compound] the MIC (M. tuberculosis H37Rv [1]; [4]) was 0.063 µg/mL (≈ 0.459 µM) and the MIC (M. tuberculosis H37Rv [1]; [5]) was 0.063 µg/mL (≈ 0.459 µM).

In the case of CO[C@H]1/C=C/O[C@@]2(C)Oc3c(C)c(O)c4c(O)c(c(/C=N/N5CCN(C)CC5)c(O)c4c3C2=O)NC(=O)/C(C)=C\C=C\[C@H](C)[C@H](O)[C@@H](C)[C@@H](O)[C@@H](C)[C@H](OC(C)=O)[C@@H]1C [Rifampin, reference compound], the MIC (M. tuberculosis H37Rv [1]; [4]) is reported as 0.0125 µg/mL (≈ 0.0152 µM) and the MIC (M. tuberculosis H37Rv [1]; [5]) is reported as 0.0031 µg/mL (≈ 0.00377 µM).
